This assay relates to L1210 leukemia ip in BDF1 mice, survival T/C. Kind of assay: NCI In Vivo Anticancer Drug Screen. Data for tumor model L1210 Leukemia (intraperitoneal) in B6D2F1 (BDF1) mice. Conditions: endpoint: mean survival time, higher = longer survival. The method, boiled down: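 Tumor was transplanted into mice, which were then dosed with test compound or vehicle alone. Survival was recorded for each group, and the treated figure was expressed relative to the control figure.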

[1] abbreviates: dose: 100.0 mg/kg/injection, schedule: Q04DX003 (ip), vehicle: saline with Tween-80.
Where [2] appears, read: dose: 200.0 mg/kg/injection, schedule: Q04DX003 (ip), vehicle: saline with Tween-80.
Setting [3] is: dose: 100.0 mg/kg/injection, schedule: Q01DX009 (ip), vehicle: Klucel (hydroxypropylcellulose) (HPC).
Setting [4] is: dose: 200.0 mg/kg/injection, schedule: Q01DX009 (ip), vehicle: Klucel (hydroxypropylcellulose) (HPC).
Where [5] appears, read: dose: 400.0 mg/kg/injection, schedule: Q01DX009 (ip), vehicle: Klucel (hydroxypropylcellulose) (HPC).
The mark [6] stands for this setting: dose: 25.0 mg/kg/injection, schedule: Q01DX009 (ip), vehicle: saline.
[7] abbreviates: dose: 50.0 mg/kg/injection, schedule: Q01DX009 (ip), vehicle: saline.
The mark [8] stands for this setting: dose: 100.0 mg/kg/injection, schedule: Q01DX001 (ip), vehicle: carboxymethylcellulose (CMC).
Where [9] appears, read: dose: 400.0 mg/kg/injection, schedule: Q01DX001 (ip), vehicle: carboxymethylcellulose (CMC).
Where [10] appears, read: dose: 50.0 mg/kg/injection, schedule: Q01DX009 (ip), vehicle: Klucel (hydroxypropylcellulose) (HPC).
Where [11] appears, read: dose: 12.5 mg/kg/injection, schedule: Q01DX009 (ip), vehicle: saline.

“And” between values parts separate entries of the source, which are not always exact repeats. Identical values can stand only once. Toxic doses and inconclusive results are not listed.

`CCc1c(C)nc(N)[nH]c1=O`: the T/C reads like this: under setting [1], 106 % of control; under setting [2], 106 % of control.

As to `Nc1cccc(/C=C/c2ccncc2)c1`, the T/C is 97 % of control under setting [3], 94 % of control under setting [4] and 95 % of control under setting [5].

As for `COC1C(CO)OC(n2cnc3c(=S)nc(N)[nH]c32)C1O` (stereo unspecified), the T/C was 105 % of control (dose: 25.0 mg/kg/injection, schedule: Q01DX009 (ip), vehicle: carboxymethylcellulose (CMC)); 100 % of control under setting [6]; 103 % of control (dose: 50.0 mg/kg/injection, schedule: Q01DX009 (ip), vehicle: carboxymethylcellulose (CMC)); 116 % of control under setting [7]; 111 % of control under setting [8]; 157 % of control (dose: 100.0 mg/kg/injection, schedule: Q01DX009 (ip), vehicle: saline). Further, the T/C is, setting by setting: (dose: 200.0 mg/kg/injection, schedule: Q01DX009 (ip), vehicle: carboxymethylcellulose (CMC)) 155 % of control; (dose: 200.0 mg/kg/injection, schedule: Q01DX009 (ip), vehicle: saline) 168 % of control; under setting [9], 154 % of control and 158 % of control.

On to `O=C(/C(=N/O)c1ccc(Cl)cc1)c1ccccc1`, for which the T/C was 89 % of control under setting [10]; 89 % of control (dose: 75.0 mg/kg/injection, schedule: Q01DX001 (ip), vehicle: Klucel (hydroxypropylcellulose) (HPC)); 96 % of control under setting [3]; 100 % of control (dose: 150.0 mg/kg/injection, schedule: Q01DX001 (ip), vehicle: Klucel (hydroxypropylcellulose) (HPC)); 107 % of control under setting [4]; 98 % of control (dose: 300.0 mg/kg/injection, schedule: Q01DX001 (ip), vehicle: Klucel (hydroxypropylcellulose) (HPC)).

For `c1cc[c]([Ge]([c]2ccccc2)[c]2ccccc2)cc1.c1ccc([Si](c2ccccc2)c2ccccc2)cc1`, the T/C by setting is: (dose: 25.6 mg/kg/injection, schedule: Q04DX002 (ip), vehicle: saline with Tween-80) 86 % of control; (dose: 64.0 mg/kg/injection, schedule: Q04DX002 (ip), vehicle: saline with Tween-80) 110 % of control; (dose: 160.0 mg/kg/injection, schedule: Q04DX002 (ip), vehicle: saline with Tween-80) 100 % of control; (dose: 400.0 mg/kg/injection, schedule: Q04DX002 (ip), vehicle: saline with Tween-80) 100 % of control.

`O=C(Nc1cccc(O)c1)c1ccccc1Cl`: the T/C was 96 % of control under setting [3], 97 % of control under setting [4] and 92 % of control under setting [5].

For `CCNc1ncnc2c1c(C(N)=S)cn2C1OC(CO)C(O)C1O` (stereo unspecified), the T/C (dose: 12.5 mg/kg/injection, schedule: Q01DX005 (ip), vehicle: saline) was 111 % of control and 113 % of control; the T/C (dose: 12.5 mg/kg/injection, schedule: Q01DX009 (ip), vehicle: Klucel (hydroxypropylcellulose) (HPC)) is 109 % of control; the T/C under setting [11] is 111 % of control; the T/C (dose: 25.0 mg/kg/injection, schedule: Q01DX005 (ip), vehicle: saline) was 105 % of control and 124 % of control; the T/C (dose: 25.0 mg/kg/injection, schedule: Q01DX009 (ip), vehicle: Klucel (hydroxypropylcellulose) (HPC)) is 91 % of control; the T/C under setting [6] was 112 % of control.

Regarding `Cn1c(N)c(N=Nc2ccc(S(=O)(=O)Nc3nccs3)cc2)c(=O)n(C)c1=O`, the T/C reads like this: under setting [8], 102 % of control; (dose: 200.0 mg/kg/injection, schedule: Q01DX001 (ip), vehicle: carboxymethylcellulose (CMC)) 96 % of control; under setting [9], 90 % of control.

For the molecule `O=C(CC(C[N+](=O)[O-])c1ccccc1)c1ccc(Cl)cc1` (stereo unspecified), the T/C reads like this: under setting [3], 96 % of control; under setting [4], 90 % of control; under setting [5], 92 % of control.

Take `CCN(CC)CC(=O)NCC(CCCN1CCCCC1)(c1cccc2ccccc12)C(C)C` (stereo unspecified): the T/C was 91 % of control under setting [11]; 98 % of control (dose: 12.5 mg/kg/injection, schedule: Q04DX003 (ip), vehicle: saline); 90 % of control under setting [6]; 95 % of control (dose: 25.0 mg/kg/injection, schedule: Q04DX003 (ip), vehicle: saline); 86 % of control under setting [7]; 96 % of control (dose: 50.0 mg/kg/injection, schedule: Q04DX003 (ip), vehicle: saline).

For `CN/N=C1\CCC2C3CCc4cc(O)ccc4C3CCC12C` (stereo unspecified), the T/C under setting [3] is 95 % of control and the T/C under setting [4] is 89 % of control.

For the molecule `COc1ccccc1NCS(=O)(=O)O`, the T/C is 98 % of control under setting [1]; 102 % of control under setting [2]; 100 % of control (dose: 400.0 mg/kg/injection, schedule: Q04DX003 (ip), vehicle: saline with Tween-80).

For `CN(CCC(=O)c1cccc2ccccc12)Cc1ccccc1`, the T/C runs as follows: under setting [10], 98 % of control; under setting [3], 97 % of control; (dose: 100.0 mg/kg/injection, schedule: Q04DX003 (ip), vehicle: Klucel (hydroxypropylcellulose) (HPC)) 100 % of control; under setting [4], 92 % of control; (dose: 200.0 mg/kg/injection, schedule: Q04DX003 (ip), vehicle: Klucel (hydroxypropylcellulose) (HPC)) 91 % of control; under setting [5], 95 % of control. For the same molecule, where the note is “dose: 400.0 mg/kg/injection, schedule: Q04DX003 (ip), vehicle: Klucel (hydroxypropylcellulose) (HPC)”, the T/C was 100 % of control.

Regarding `CCOC(=O)c1cc(Cl)c2ccccc2n1`, the T/C by setting is: (dose: 100.0 mg/kg/injection, schedule: Q01DX001 (ip), vehicle: saline) 96 % of control; (dose: 200.0 mg/kg/injection, schedule: Q01DX001 (ip), vehicle: saline) 98 % of control; (dose: 400.0 mg/kg/injection, schedule: Q01DX001 (ip), vehicle: saline) 96 % of control.

On to `CSc1ccc(NC(=O)Nc2cc(C(C)C)ccc2C)cc1`, for which the T/C is, setting by setting: under setting [3], 103 % of control; under setting [4], 104 % of control; under setting [5], 98 % of control.

Regarding `O=C(/C=C/c1cccc([N+](=O)[O-])c1)Nc1cccc(S(=O)(=O)F)c1`, the T/C was 89 % of control (dose: 100.0 mg/kg/injection, schedule: Q01DX009 (ip), vehicle: saline with Tween-80); 96 % of control (dose: 200.0 mg/kg/injection, schedule: Q01DX009 (ip), vehicle: saline with Tween-80); 97 % of control (dose: 400.0 mg/kg/injection, schedule: Q01DX009 (ip), vehicle: saline with Tween-80).

For `CCN(CC)C(=S)N1C(=O)C2C3CCC(O3)C2C1=O` (stereo unspecified), the T/C by setting is: (dose: 6.25 mg/kg/injection, schedule: Q01DX009 (ip), vehicle: saline with Tween-80) 97 % of control; (dose: 6.25 mg/kg/injection, schedule: Q04DX002 (ip), vehicle: saline) 107 % of control; (dose: 12.5 mg/kg/injection, schedule: Q01DX009 (ip), vehicle: saline with Tween-80) 101 % of control; (dose: 12.5 mg/kg/injection, schedule: Q04DX002 (ip), vehicle: saline) 104 % of control; (dose: 25.0 mg/kg/injection, schedule: Q01DX009 (ip), vehicle: saline with Tween-80) 101 % of control; (dose: 25.0 mg/kg/injection, schedule: Q04DX002 (ip), vehicle: saline) 100 % of control.

Take `O=C(C=C(C(F)(F)F)C(F)(F)F)c1cccc2ccccc12`: the T/C reads like this: (dose: 12.5 mg/kg/injection, schedule: Q01DX009 (ip), vehicle: gum acacia) 107 % of control; (dose: 25.0 mg/kg/injection, schedule: Q01DX009 (ip), vehicle: gum acacia) 100 % of control; (dose: 50.0 mg/kg/injection, schedule: Q01DX009 (ip), vehicle: gum acacia) 100 % of control; (dose: 100.0 mg/kg/injection, schedule: Q04DX003 (ip), vehicle: gum acacia) 100 % of control; (dose: 200.0 mg/kg/injection, schedule: Q04DX003 (ip), vehicle: gum acacia) 97 % of control; (dose: 400.0 mg/kg/injection, schedule: Q04DX003 (ip), vehicle: gum acacia) 91 % of control.

For `C=C(C)C1(O)C=CC(=O)O1` (stereo unspecified), the T/C is, setting by setting: under setting [11], 102 % of control; under setting [6], 100 % of control; under setting [7], 107 % of control.

(Values after PubChem BioAssay AID248 (DTP/NCI, 2004).)
